Assay results from patent US6737383B1, “Herbicidal oxadiazolidines” (priority 1999, dated 2004).

How the values were obtained:
pigweed = assay: Test B pre/postemergence pigweed; assay type: in vivo, Amaranthus retroflexus
Summary of the method: (§1)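 Test chemicals in a non-phytotoxic solvent mixture with surfactant were sprayed preemergence onto planted seeds and postemergence onto plants 2 to 18 cm tall (1- to 4-leaf stage). After twelve to sixteen days in a greenhouse, injury was visually rated against untreated controls from 0 (no effect) to 10 (complete control).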

soybean = assay: Test B pre/postemergence soybean; assay type: in vivo, Glycine max
Summary of the method: as §1

rape = assay: Test B pre/postemergence rape; assay type: in vivo, Brassica napus
Summary of the method: as §1

surinam grass = assay: Test B pre/postemergence surinam grass; assay type: in vivo, Brachiaria decumbens
Summary of the method: as §1

sugar beet = assay: Test B pre/postemergence sugar beet; assay type: in vivo, Beta vulgaris
Summary of the method: as §1

blackgrass = assay: Test B pre/postemergence blackgrass; assay type: in vivo, Alopecurus myosuroides
Summary of the method: as §1

bedstraw = assay: Test B pre/postemergence bedstraw; assay type: in vivo, Galium aparine; settings: Preemergence
Summary of the method: as §1

giant foxtail = assay: Test B pre/postemergence giant foxtail; assay type: in vivo, Setaria faberii
Summary of the method: as §1

morningglory = assay: Test B pre/postemergence morningglory; assay type: in vivo, Ipomoea hederacea
Summary of the method: as §1

crabgrass = assay: Test B pre/postemergence crabgrass; assay type: in vivo, Digitaria sanguinalis
Summary of the method: as §1

purple nutsedge = assay: Test B pre/postemergence purple nutsedge; assay type: in vivo, Cyperus rotundus
Summary of the method: as §1

corn = assay: Test B pre/postemergence corn; assay type: in vivo, Zea mays
Summary of the method: as §1

velvetleaf = assay: Test B pre/postemergence velvetleaf; assay type: in vivo, Abutilon theophrasti
Summary of the method: as §1

wild oat = assay: Test B pre/postemergence wild oat; assay type: in vivo, Avena fatua
Summary of the method: as §1

cocklebur = assay: Test B pre/postemergence cocklebur; assay type: in vivo, Xanthium strumarium
Summary of the method: as §1

wheat = assay: Test B pre/postemergence wheat; assay type: in vivo, Triticum aestivum
Summary of the method: as §1

[1] = Preemergence, Rate 62 g/ha, scale of 0 to 10 where 0 is no effect and 10 is complete control
[2] = Preemergence, Rate 125 g/ha, scale of 0 to 10 where 0 is no effect and 10 is complete control
[3] = Preemergence, Rate 500 g/ha, scale of 0 to 10 where 0 is no effect and 10 is complete control
[4] = Preemergence, Rate 250 g/ha, scale 0 to 10 (0 no effect, 10 complete control)
[5] = Rate 62 g/ha, scale of 0 to 10 where 0 is no effect and 10 is complete control
[6] = Rate 125 g/ha, scale of 0 to 10 where 0 is no effect and 10 is complete control
[7] = Rate 500 g/ha, scale of 0 to 10 where 0 is no effect and 10 is complete control
[8] = Postemergence, Rate 62 g/ha, scale 0 to 10, 0 is no effect, 10 is complete control
[9] = Postemergence, Rate 125 g/ha, scale of 0 to 10 where 0 is no effect and 10 is complete control
[10] = Preemergence, Rate 250 g/ha, scale 0 (no effect) to 10 (complete control)
[11] = Rate 250 g/ha, Postemergence, scale 0 to 10, 0 is no effect, 10 is complete control
[12] = Rate 500 g/ha, Postemergence, scale 0 to 10, 0 is no effect, 10 is complete control

CCn1ncc(Cn2c(=O)on(C(=O)N(c3ccccc3)C(C)C)c2=O)c1Cl [Compound 683]
6: Plant response rating, Redroot pigweed (pigweed; [3]) | Crabgrass plant response rating (crabgrass; [1])
2: Plant response rating, Redroot pigweed (pigweed; [2]) | Plant response rating, Morningglory (morningglory; [3])
4: Plant response rating, B. signalgrass (surinam grass; [4])
1: Blackgrass plant response rating (blackgrass; [1])
8: Giant foxtail plant response rating (giant foxtail; [1]) | Plant response rating, Crabgrass (crabgrass; [2]) | Plant response rating, Wild oats (wild oat; [3])
3: Plant response rating, Blackgrass (blackgrass; [2]) | Plant response rating, Corn (corn; [3])
9: Plant response rating, B. signalgrass (surinam grass; [3]) | Plant response rating, Blackgrass (blackgrass; [3]) | Plant response rating, Giant foxtail (giant foxtail; [2]) | Plant response rating, Crabgrass (crabgrass; [4])
10: Plant response rating, Giant foxtail (giant foxtail; [3]) | Plant response rating, Crabgrass (crabgrass; [3])
0: Redroot pigweed plant response rating (pigweed; [1]) | Soybean plant response rating (soybean; [1]) | Plant response rating, Soybean (soybean; [2]) | Plant response rating, Soybean (soybean; [3]) | Rape plant response rating (rape; [1]) | Plant response rating, Rape (rape; [2]) | Plant response rating, Rape (rape; [3]) | B. signalgrass plant response rating (surinam grass; [1]) | Plant response rating, B. signalgrass (surinam grass; [2]) | Sugarbeets plant response rating (sugar beet; [1]) | Plant response rating, Sugarbeets (sugar beet; [2]) | Plant response rating, Sugarbeets (sugar beet; [3]) | Bedstraw plant response rating (bedstraw; [5]) | Plant response rating, Bedstraw (bedstraw; [6]) | Plant response rating, Bedstraw (bedstraw; Rate 250 g/ha, scale 0 to 10 (0 no effect, 10 complete control)) | Plant response rating, Bedstraw (bedstraw; [7]) | Morningglory plant response rating (morningglory; [1]) | Plant response rating, Morningglory (morningglory; [2]) | Nutsedge plant response rating (purple nutsedge; [1]) | Plant response rating, Nutsedge (purple nutsedge; [2]) | Plant response rating, Nutsedge (purple nutsedge; [3]) | Corn plant response rating (corn; [1]) | Plant response rating, Corn (corn; [2]) | Plant response rating, Corn (corn; [4]) | Velvetleaf plant response rating (velvetleaf; [1]) | Plant response rating, Velvetleaf (velvetleaf; [2]) | Plant response rating, Velvetleaf (velvetleaf; [3]) | Wild oats plant response rating (wild oat; [1]) | Plant response rating, Wild oats (wild oat; [2]) | Cocklebur plant response rating (cocklebur; [1]) | Plant response rating, Cocklebur (cocklebur; [2]) | Plant response rating, Cocklebur (cocklebur; [4]) | Plant response rating, Cocklebur (cocklebur; [3]) | Wheat plant response rating (wheat; [1]) | Plant response rating, Wheat (wheat; [2]) | Plant response rating, Wheat (wheat; [3])
7: Plant response rating, Blackgrass (blackgrass; [4])

CC(C)N(C(=O)n1oc(=O)n(CF)c1=O)c1ccc(F)cc1 [Compound 709]
5: Plant response rating, Redroot pigweed (pigweed; [8]) | Redroot pigweed plant response rating (pigweed; [9]) | Redroot pigweed plant response rating (pigweed; [10])
4: Soybean plant response rating (soybean; [12]) | Giant foxtail plant response rating (giant foxtail; [9]) | Plant response rating, Giant foxtail (giant foxtail; [2]) | Plant response rating, Velvetleaf (velvetleaf; [8]) | Velvetleaf plant response rating (velvetleaf; [9]) | Velvetleaf plant response rating (velvetleaf; [11])
8: Redroot pigweed plant response rating (pigweed; [11]) | Redroot pigweed plant response rating (pigweed; [12]) | Giant foxtail plant response rating (giant foxtail; [11]) | Crabgrass plant response rating (crabgrass; [12])
2: Giant foxtail plant response rating (giant foxtail; [1]) | Morningglory plant response rating (morningglory; [11]) | Plant response rating, Crabgrass (crabgrass; [8]) | Crabgrass plant response rating (crabgrass; [1])
7: Giant foxtail plant response rating (giant foxtail; [10]) | Crabgrass plant response rating (crabgrass; [10])
0: Redroot pigweed plant response rating (pigweed; [1]) | Plant response rating, Redroot pigweed (pigweed; [2]) | Soybean plant response rating (soybean; [1]) | Plant response rating, Soybean (soybean; [2]) | Soybean plant response rating (soybean; [10]) | Plant response rating, Rape (rape; [8]) | Rape plant response rating (rape; [9]) | Rape plant response rating (rape; [1]) | Plant response rating, Rape (rape; [2]) | Rape plant response rating (rape; [10]) | Rape plant response rating (rape; [11]) | Rape plant response rating (rape; [12]) | Plant response rating, B. signalgrass (surinam grass; [8]) | B. signalgrass plant response rating (surinam grass; [9]) | B. signalgrass plant response rating (surinam grass; [1]) | Plant response rating, B. signalgrass (surinam grass; [2]) | B. signalgrass plant response rating (surinam grass; [10]) | Plant response rating, B. signalgrass (surinam grass; [3]) | B. signalgrass plant response rating (surinam grass; [11]) | B. signalgrass plant response rating (surinam grass; [12]) | Plant response rating, Sugarbeets (sugar beet; [8]) | Sugarbeets plant response rating (sugar beet; [9]) | Sugarbeets plant response rating (sugar beet; [1]) | Plant response rating, Sugarbeets (sugar beet; [2]) | Sugarbeets plant response rating (sugar beet; [10]) | Sugarbeets plant response rating (sugar beet; [11]) | Sugarbeets plant response rating (sugar beet; [12]) | Plant response rating, Blackgrass (blackgrass; [8]) | Blackgrass plant response rating (blackgrass; [9]) | Blackgrass plant response rating (blackgrass; [1]) | Plant response rating, Blackgrass (blackgrass; [2]) | Blackgrass plant response rating (blackgrass; [10]) | Plant response rating, Blackgrass (blackgrass; [3]) | Blackgrass plant response rating (blackgrass; [11]) | Blackgrass plant response rating (blackgrass; [12]) | Bedstraw plant response rating (bedstraw; [5]) | Plant response rating, Bedstraw (bedstraw; [6]) | Bedstraw plant response rating (bedstraw; Rate 250 g/ha, scale 0 (no effect) to 10 (complete control)) | Plant response rating, Bedstraw (bedstraw; [7]) | Morningglory plant response rating (morningglory; [9]) | Morningglory plant response rating (morningglory; [1]) | Plant response rating, Morningglory (morningglory; [2]) | Morningglory plant response rating (morningglory; [10]) | Plant response rating, Nutsedge (purple nutsedge; [8]) | Nutsedge plant response rating (purple nutsedge; [9]) | Nutsedge plant response rating (purple nutsedge; [1]) | Plant response rating, Nutsedge (purple nutsedge; [2]) | Nutsedge plant response rating (purple nutsedge; [11]) | Plant response rating, Corn (corn; [8]) | Corn plant response rating (corn; [9]) | Corn plant response rating (corn; [1]) | Plant response rating, Corn (corn; [2]) | Corn plant response rating (corn; [10]) | Corn plant response rating (corn; [11]) | Corn plant response rating (corn; [12]) | Velvetleaf plant response rating (velvetleaf; [1]) | Plant response rating, Velvetleaf (velvetleaf; [2]) | Velvetleaf plant response rating (velvetleaf; [10]) | Plant response rating, Wild oats (wild oat; [8]) | Wild oats plant response rating (wild oat; [9]) | Wild oats plant response rating (wild oat; [1]) | Plant response rating, Wild oats (wild oat; [2]) | Wild oats plant response rating (wild oat; [10]) | Wild oats plant response rating (wild oat; [11]) | Wild oats plant response rating (wild oat; [12]) | Plant response rating, Cocklebur (cocklebur; [8]) | Cocklebur plant response rating (cocklebur; [9]) | Cocklebur plant response rating (cocklebur; [1]) | Plant response rating, Cocklebur (cocklebur; [2]) | Cocklebur plant response rating (cocklebur; [10]) | Plant response rating, Cocklebur (cocklebur; [3]) | Cocklebur plant response rating (cocklebur; [11]) | Plant response rating, Wheat (wheat; [8]) | Wheat plant response rating (wheat; [9]) | Wheat plant response rating (wheat; [1]) | Plant response rating, Wheat (wheat; [2]) | Wheat plant response rating (wheat; [10]) | Wheat plant response rating (wheat; [11]) | Wheat plant response rating (wheat; [12])
1: Plant response rating, Soybean (soybean; [8])
9: Giant foxtail plant response rating (giant foxtail; [12])
3: Soybean plant response rating (soybean; [9]) | Soybean plant response rating (soybean; [11]) | Plant response rating, Giant foxtail (giant foxtail; [8]) | Crabgrass plant response rating (crabgrass; [9]) | Plant response rating, Crabgrass (crabgrass; [2]) | Cocklebur plant response rating (cocklebur; [12])
6: Morningglory plant response rating (morningglory; [12]) | Crabgrass plant response rating (crabgrass; [11]) | Nutsedge plant response rating (purple nutsedge; [12]) | Velvetleaf plant response rating (velvetleaf; [12])
